Molecular target: T1, Sc-FAR-2 (Steinernema carpocapsae, UniProt A0A4U5NI02)
T1 construct: gene L596_016036; mature protein (signal peptide removed), N-terminal His6 tag cut off with TEV protease, E. coli BL21-CodonPlus, about 20 kDa family
Experiment: fluorescence titration, one-site fit
Assay type: binding

T1 sequence (A0A4U5NI02 entry or part of it): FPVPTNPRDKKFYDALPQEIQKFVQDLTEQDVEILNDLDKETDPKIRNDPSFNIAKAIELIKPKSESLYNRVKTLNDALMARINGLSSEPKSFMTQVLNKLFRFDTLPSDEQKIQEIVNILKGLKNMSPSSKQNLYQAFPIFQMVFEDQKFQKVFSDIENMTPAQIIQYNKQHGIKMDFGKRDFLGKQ

## CN(C)c1cccc2c(S(=O)(=O)NCCCCCCCCCCC(=O)O)cccc12 [DAUDA]
  Kd: 21.8 µM

Source: article PMC8580252, “Parasitic nematode fatty acid- and retinol-binding proteins compromise host immunity by interfering with host lipid signaling pathways” (PLoS Pathogens, 2021)
